Like-named read-outs stand apart in the source and are kept apart here.
Tests used:
[1] = test system: A549; test: Cell growth inhibition experiment (SRB), A549; assay type: cell-based; details: Homo sapiens, A549, 96 h, 96 hours incubation, read-out: IC50 (μM) for cancer cell line A549
Experimental: (§1) The 4-(aryl)-N-(3-alkoxyfuro[2,3-b]pyrazin-2-yl)-piperazine-1-carboxamide derivative compounds synthesized according to Examples 1 to 60 of the present invention were treated with various human tissue-derived cancer cell lines cultured according to Experimental Example 1, and thus the inhibitory effect of the growth of human cancer cells was confirmed. The cell growth inhibition experiment was conducted using the sulforhodamine B (SRB) technique (Skehan et al., J. National Cancer Institute, 1990, 82: 1107-1112). Specifically, each cell line was seeded in a 96-well plate at a density of 2 to 3×10^3 cells/well, cultured overnight, and then treated with the 4-(aryl)-N-(3-alkoxyfuro[2,3-b]pyrazin-2-yl)-piperazine-1-carboxamide derivative compounds of the present invention. The experiment was repeated 3 times for each compound. Cells treated with each compound were additionally incubated for 96 hours, fixed with 10% trichloroacetic acid (TCA), and then left at 4° C. for 1 hour. The resultant was washed 3 times with distilled water. Thereafter, each cell was treated with 0.4% sulforhodamine B dissolved in 1% acetic acid, stained for 30 minutes, and then washed 4 times with 1% acetic acid. The resultant was dried in the air. After shaking the resultant in Tris solution (10 mM) for 5 minutes, the absorbance was measured at 530 nm using a Benchmark Plus Microplate reader (Bio-Rad Laboratories, Hercules, Calif.).
(§2) In order to convert the OD530 value to the number of viable cells per each well, the measured OD530 value was compared to the standard OD530-vs.-cell number curve of each cell line. The percent survival was calculated using the following formula: % survival=Nlive cells(test)/Nlive cells(control)×100

[2] = test system: HEK293; test: Cell growth inhibition experiment (SRB), HEK293; assay type: cell-based, human; details: 96 hours incubation, read-out: IC50 (μM) for cancer cell line HEK293
Experimental: as §1, §2

[3] = test system: HUVEC; test: Cell growth inhibition experiment (SRB), HUVEC; assay type: cell-based, human; details: 96 hours incubation, read-out: IC50 (μM) […]
Experimental: as §1, §2

[4] = test system: UMRC2 (kidney cancer) cell line; test: Cell growth inhibition experiment (SRB), UMRC2; assay type: cell-based, human; details: 96 hours incubation
Experimental: (§3) The cell lines below were used in order to confirm the efficacy of the compounds synthesized in Examples 1 to 60. Human PANC-1 (pancreatic cancer) and MDA-MB-231 (breast cancer) cell lines were obtained from the American Type Culture Collection (ATCC; Manassas, Va.); and HN31 (head and neck cancer) and UMRC2 (kidney cancer) cell lines were secured from the United States National Institutes of Health (Bethesda, Md.). The MDA-MB-231, UMRC2, HN31, and PANC-1 cell lines were cultured in Dulbecco modified Eagle medium (DMEM; Invitrogen, Carlsbad, Calif.) containing FBS (10%), HEPES (10 mM), penicillin (100 U/mL), and streptomycin (100 μg/mL). All cell lines were cultured in an incubator (37° C., 5% CO2).
as §1, §2

[5] = test system: SK-OV-3; test: Cell growth inhibition experiment (SRB), SK-OV-3; assay type: cell-based, human; details: 96 hours incubation, read-out: IC50 (μM) for cancer cell line SK-OV-3
Experimental: as §1, §2

[6] = test system: HT29; test: Cell growth inhibition experiment (SRB), HT29; assay type: cell-based, human; details: 96 hours incubation, read-out: IC50 (μM) for cancer cell line HT29
Experimental: as §1, §2

[7] = test system: MDA-MB-231 (breast cancer) cell line; test: Cell growth inhibition experiment (SRB), MDA-MB-231; assay type: cell-based, human; details: 96 hours incubation
Experimental: as §3, §1, §2

[8] = test system: HN31 (head and neck cancer) cell line; test: Cell growth inhibition experiment (SRB), HN31; assay type: cell-based, human; details: 96 hours incubation
Experimental: as §3, §1, §2

[9] = test system: PANC-1 (pancreatic cancer) cell line; test: Cell growth inhibition experiment (SRB), PANC-1; assay type: cell-based; details: Homo sapiens, PANC-1, 96 h, 96 hours incubation
Experimental: as §3, §1, §2

Row | SMILES | IC50 [1] [µM] | IC50 ([4]; Homo sapiens, UMRC2, 96 h) [µM] | IC50 ([5]; Homo sapiens, SK-OV-3, 96 h) [µM] | IC50 ([6]; Homo sapiens, HT-29, 96 h) [µM] | IC50 ([7]; Homo sapiens, MDA-MB-231, 96 h) [µM] | IC50 ([8]; Homo sapiens, 96 h) [µM] | IC50 [9] [µM] | IC50 [4] [µM] | IC50 [5] [µM] | IC50 [6] [µM] | IC50 [7] [µM] | IC50 [8] [µM] | IC50 ([2]; Homo sapiens, HEK293, 96 h) [µM] | IC50 ([3]; Homo sapiens, HUVEC, 96 h) [µM] | IC50 [2] [µM] | IC50 [3] [µM]
1 | COc1nc2occc2nc1NC(=O)N1CCN(c2cc(C)cc(C)c2)CC1 [Example 5, 4-(3,5-Dimethylphenyl)-N-(3-methoxyfuro[2,3-b]pyrazin-2-yl)piperazine-1-carboxamide] | < 2.5 | 1.72 | < 2.5 | < 2.5 | 1.12 | 2.35 | 1.32 |  |  |  |  |  | < 2.5 | < 2.5 |  | 
2 | COc1nc2occc2nc1NC(=O)N1CCN(c2cc(C)cc(F)c2)CC1 [Example 6, 4-(3-Fluoro-5-methylphenyl)-N-(3-methoxyfuro[2,3-b]pyrazin-2-yl)piperazine-1-carboxamide] | 1.78 | 1.21 | < 2.5 | < 2.5 | 1.13 | 1.98 | 0.98 |  |  |  |  |  | 1.83 | < 2.5 |  | 
3 | COc1nc2occc2nc1NC(=O)N1CCN(c2cc(F)cc(F)c2)CC1 [Example 7, 4-(3,5-difluorophenyl)-N-(3-methoxyfuro[2,3-b]pyrazin-2-yl)piperazine-1-carboxamide] | < 2.5 | 1.78 | < 2.5 | < 2.5 | 1.78 | < 2.5 | 1.89 |  |  |  |  |  | < 2.5 | < 2.5 |  | 
4 | COc1nc2occc2nc1NC(=O)N1CCN(c2cc(F)cc(C(F)(F)F)c2)CC1 [Example 8, 4-(3-Fluoro-5-(trifluoromethyl)phenyl)-N-(3-methoxyfuro[2,3-b]pyrazin-2-yl)piperazine-1-carboxamide] | < 2.5 | 0.88 | < 2.5 | < 2.5 | 0.98 | < 2.5 | 1.98 |  |  |  |  |  | < 2.5 | < 2.5 |  | 
5 | COc1nc2occc2nc1NC(=O)N1CCN(c2cc(C(F)(F)F)cc(C(F)(F)F)c2)CC1 [Example 9, 4-(3,5-Bis(trifluoromethyl)phenyl)-N-(3-methoxyfuro[2,3-b]pyrazin-2-yl)piperazine-1-carboxamide] | < 2.5 | < 2.5 | < 2.5 | < 2.5 | < 2.5 | < 2.5 | < 2.5 |  |  |  |  |  | < 2.5 | < 2.5 |  | 
6 | COc1nc2occc2nc1NC(=O)N1CCN(c2cccc(OC(F)(F)F)c2)CC1 [Example 10, N-(3-Methoxyfuro[2,3-b]pyrazin-2-yl)-4-(3-(trifluoromethoxy)phenyl)piperazine-1-carboxamide] | 1.14 | 1.13 | 1.23 | 1.27 | 1.02 | 0.28 | 0.68 |  |  |  |  |  | 0.56 | 1.36 |  | 
7 | CCOc1nc2occc2nc1NC(=O)N1CCN(c2cc(C)cc(OC)c2)CC1 [Example 12, N-(3-Ethoxyfuro[2,3-b]pyrazin-2-yl)-4-(3-methoxy-5-methylphenyl)piperazine-1-carboxamide] | 1.28 | 0.14 | 1.29 | 1.3 | 0.05 | 0.33 | 0.24 |  |  |  |  |  | 1.55 | 0.27 |  | 
8 | CCOc1nc2occc2nc1NC(=O)N1CCN(c2cc(F)cc(OC)c2)CC1 [Example 13, N-(3-Ethoxyfuro[2,3-b]pyrazin-2-yl)-4-(3-fluoro-5-methoxyphenyl)piperazine-1-carboxamide] | < 2.5 | 0.26 | < 2.5 | < 2.5 | 0.16 | 0.72 | 0.65 |  |  |  |  |  | < 2.5 | < 2.5 |  | 
9 | CCOc1nc2occc2nc1NC(=O)N1CCN(c2cc(C)cc(C)c2)CC1 [Example 15, 4-(3,5-Dimethylphenyl)-N-(3-ethoxyfuro[2,3-b]pyrazin-2-yl)piperazine-1-carboxamide] | < 2.5 | 0.25 | < 2.5 | < 2.5 | 0.24 | 0.78 | 1.12 |  |  |  |  |  | < 2.5 | < 2.5 |  | 
10 | COc1cc(F)cc(N2CCN(C(=O)Nc3nc4cc(Cl)oc4nc3OC)CC2)c1 [Example 43, N-(6-Chloro-3-methoxyfuro[2,3-b]pyrazin-2-yl)-4-(3-fluoro-5-methoxyphenyl)piperazine-1-carboxamide] |  | 0.32 | 2.13 | 1.59 | 0.21 | 0.68 |  | 0.36 | < 2.5 | < 2.5 | 0.12 | 0.57 | 1.32 | 1.77 | < 2.5 | < 2.5

The next lines start with results.

Row | IC50 [1] [µM] | IC50 ([4]; Homo sapiens, UMRC2, 96 h) [µM] | IC50 ([5]; Homo sapiens, SK-OV-3, 96 h) [µM] | IC50 ([6]; Homo sapiens, HT-29, 96 h) [µM] | IC50 ([7]; Homo sapiens, MDA-MB-231, 96 h) [µM] | IC50 ([8]; Homo sapiens, 96 h) [µM] | IC50 [9] [µM] | IC50 [4] [µM] | IC50 [5] [µM] | IC50 [6] [µM] | IC50 [7] [µM] | IC50 [8] [µM] | SMILES | IC50 ([2]; Homo sapiens, HEK293, 96 h) [µM] | IC50 ([3]; Homo sapiens, HUVEC, 96 h) [µM] | IC50 [2] [µM] | IC50 [3] [µM]
11 | 1.13 | 0.03 | 0.27 | 0.31 | 0.12 | 0.27 | 0.53 |  |  |  |  |  | COc1cc(OC)cc(N2CCN(C(=O)Nc3nc4ccoc4nc3OC)CC2)c1 [Example 1, 4-(3,5-Dimethoxyphenyl)-N-(3-methoxyfuro[2,3-b]pyrazin-2-yl)piperazine-1-carboxamide] | 0.63 | 0.12 |  | 
12 | 0.23 | 0.38 | 0.82 | 0.62 | 0.26 | 0.49 | 0.45 |  |  |  |  |  | COc1cc(C)cc(N2CCN(C(=O)Nc3nc4ccoc4nc3OC)CC2)c1 [Example 2, 4-(3-Methoxy-5-methylphenyl)-N-(3-methoxyfuro[2,3-b]pyrazin-2-yl)piperazine-1-carboxamide] | 1.93 | 0.91 |  | 
13 | 2.11 | 0.06 | 0.85 | 1.53 | 0.24 | 0.71 | 0.56 |  |  |  |  |  | COc1cc(F)cc(N2CCN(C(=O)Nc3nc4ccoc4nc3OC)CC2)c1 [Example 3, 4-(3-Fluoro-5-methoxyphenyl)-N-(3-methoxyfuro[2,3-b]pyrazin-2-yl)piperazine-1-carboxamide] | < 2.5 | < 2.5 |  | 
14 | < 2.5 | 0.54 | < 2.5 | < 2.5 | 1.13 | 1.54 | 0.68 |  |  |  |  |  | COc1cc(OCCN(C)C)cc(N2CCN(C(=O)Nc3nc4ccoc4nc3OC)CC2)c1 [Example 4, 4-(3-(2-(Dimethylamino)ethoxy)-5-methoxyphenyl)-N-(3-methoxyfuro[2,3-b]pyrazin-2-yl)piperazine-1-carboxamide] | < 2.5 | 1.25 |  | 
15 | 1.51 | 0.07 | 1.27 | 1.31 | 0.07 | 0.41 | 0.24 |  |  |  |  |  | CCOc1nc2occc2nc1NC(=O)N1CCN(c2cc(OC)cc(OC)c2)CC1 [Example 11, 4-(3,5-Dimethoxyphenyl)-N-(3-ethoxyfuro[2,3-b]pyrazin-2-yl)piperazine-1-carboxamide] | 0.65 | 0.07 |  | 
16 | 1.85 | 0.68 | < 2.5 | < 2.5 | 0.34 | 0.65 | 1.23 |  |  |  |  |  | CCOc1nc2occc2nc1NC(=O)N1CCN(c2cc(OC)cc(OCCN(C)C)c2)CC1 [Example 14, 4-(3-(2-(Dimethylamino)ethoxy)-5-methoxyphenyl)-N-(3-ethoxyfuro[2,3-b]pyrazin-2-yl)piperazine-1-carboxamide] | < 2.5 | < 2.5 |  | 

Source: US10800788B2, “4-(aryl)-N-(3-alkoxyfuro[2,3-b]pyrazin-2-yl)-piperazine-1-carboxamide derivative and antiproliferative effect thereof” (Dongguk University Industry-Academic Cooperation Foundation, priority 2016, dated 2020)
